Measurements from ChEMBL document CHEMBL5036370, “Indole-Containing Pyrazino[2,1-b]quinazoline-3,6-diones Active against Plasmodium and Trypanosomatids” (ACS Med Chem Lett, 2022).
Active and inactive are the calls of the source. The rule behind the calls is not given here.

Experiments:
Plasmodium falciparum [1] = test: Antimalarial activity against CQ-sensitive Plasmodium falciparum 3D7 assessed as parasite growth inhibition incubated for 48 hrs by SYBR Green I dye based fluorescence assay; assay type: functional, organism-based; conditions: 3D7, 48 h
[2] = Selectivity index, ratio of CC50 for cytotoxicity against human THP-1 cells to IC50 for antileishmanial activity against axenic amastigote stage of Leishmania infantum infected in THP-1 cells; assay type: toxicity, cell-based; conditions: read-out: Ratio CC50/IC50
[3] = Selectivity index, ratio of CC50 for cytotoxicity against human THP-1 cells to IC50 for antitrypanosomal activity against bloodstream form of Trypanosoma brucei Lister 427; assay type: toxicity, cell-based; conditions: read-out: Ratio CC50/IC50
[4] = Cytotoxicity against human THP-1 cells assessed as reduction in cell viability measured after 72 hrs by MTT assay; assay type: cell-based
Trypanosoma brucei [5] = test: Antitrypanosomal activity against bloodstream form of Trypanosoma brucei Lister 427 assessed as parasite growth inhibition incubated for 72 hrs by resazurin staining based assay; assay type: functional, organism-based; conditions: Lister 427, 72 h
Leishmania infantum [6] = test: Antileishmanial activity against axenic amastigote stage of Leishmania infantum infected in THP-1 cells assessed as reduction in parasite growth incubated for 72 hrs by luminescence analysis; assay type: functional, organism-based; conditions: THP-1, 72 h
V79 = test: (§1) Cytotoxicity against Chinese hamster V79 cells measured after 24 hrs by MTT assay; assay type: cell-based, Cricetulus griseus; conditions: v79, 24 h
[7] = Selectivity index, ratio of LD50 for cytotoxicity against Chinese hamster V79 cells to IC50 for antimalarial activity against CQ-sensitive Plasmodium falciparum 3D7; assay type: toxicity, cell-based; conditions: V79 cells versus Plasmodium falciparum 3D7, read-out: Ratio LD50/IC50
Hemozoin [8] = test: Inhibition of Beta-hematin formation at 12 to 48 uM after 24 hrs by microplate reader assay; conditions: dose 12-48 µM
[9] = Hemolytic activity against human erythrocytes at 0.04 to 10 uM incubated for 1 hr by microplate reader assay; assay type: ADME, tissue-based, Erythrocyte; conditions: dose 0.04-10 µM, read-out: Activity
Trypanosoma brucei [10] = test: Antitrypanosomal activity against bloodstream form of Trypanosoma brucei Lister 427 assessed as parasite growth inhibition at 10 uM incubated for 72 hrs by resazurin staining based assay; assay type: functional, organism-based
Leishmania infantum [11] = test: Antileishmanial activity against axenic amastigote stage of Leishmania infantum infected in THP-1 cells assessed as reduction in parasite growth at 10 uM incubated for 72 hrs by luminescence analysis; assay type: functional, organism-based
[12] = Hemolytic activity against human erythrocytes at <=10 uM incubated for 1 hr by microplate reader assay; assay type: ADME, tissue-based; conditions: erythrocyte
[13] = as §1; assay type: cell-based, Cricetulus griseus; conditions: V79 cells, read-out: LD50
HepG2 = test: Cytotoxicity against human HepG2 cells; assay type: cell-based
Plasmodium falciparum [14] = test: Antiplasmodial activity against Plasmodium falciparum 3D7 infected in erythrocytes assessed as parasite growth inhibition measured after 72 hrs by LDH assay; assay type: functional, organism-based; conditions: 3D7, Erythrocyte
Hemozoin [15] = test: Inhibition of Beta-hematin formation at 24 to 96 uM after 24 hrs by microplate reader assay; conditions: dose 24-96 µM

| SMILES | IC50 (Plasmodium falciparum [1]) | selectivity ratio [3] | CC50 at 72 h [4] | IC50 (Trypanosoma brucei [5]) | LD50 (V79) | inhibition (Trypanosoma brucei [10]) | inhibition (Leishmania infantum [11]) | other results |
| --- | --- | --- | --- | --- | --- | --- | --- | --- |
| CC[C@H](C)[C@@H]1NC(=O)[C@@H](Cc2c[nH]c3ccccc23)n2c1nc1ccc(Br)cc1c2=O | > 10 µM | 9.4 | 50 µM | 5.3 µM | Not Active |  |  | selectivity ratio [2]: 6.4; IC50 (Leishmania infantum [6]): 7.8 µM |
| C[C@H]1NC(=O)[C@@H](Cc2c[nH]c3ccccc23)n2c1nc1ccccc1c2=O [FUMIQUINAZOLINE G] | 3.68 µM |  |  |  | Not Active |  |  |  |
| CC(C)C[C@@H]1NC(=O)[C@@H](Cc2c[nH]c3ccccc23)n2c1nc1ccc(I)cc1c2=O | > 10 µM | 12.2 | 50 µM | 4.1 µM | Not Active |  |  | selectivity ratio [2]: 6.7; IC50 (Leishmania infantum [6]): 7.4 µM |
| CC(C)C[C@@H]1NC(=O)[C@@H](Cc2c[nH]c3ccccc23)n2c1nc1ccccc1c2=O | 0.05 µM |  | > 100 µM |  |  | inactive | inactive | selectivity ratio [7]: 34; inhibition (Hemozoin [8]): inactive; hemolysis at 1 h, up to 10 µM [9]: < 6%; Activity [12]: Non-Toxic; CC50 at 24 h [13]: 1.78 µM |
| COc1ccc2nc3n(c(=O)c2c1)[C@H](Cc1c[nH]c2ccccc12)C(=O)N[C@H]3CC(C)C | > 10 µM |  | > 100 µM |  | Not Active | inactive | inactive |  |
| CC(C)C[C@H]1NC(=O)[C@@H](Cc2c[nH]c3ccccc23)n2c1nc1ccccc1c2=O | 0.47 µM | 65.7 | 25 µM | 0.38 µM | Not Active |  |  | selectivity ratio [2]: 9.6; IC50 (Leishmania infantum [6]): 2.6 µM |
| CC(C)C[C@@H]1NC(=O)[C@@H](Cc2c[nH]c3ccccc23)n2c1nc1cc(-c3nnnn3C)ccc1c2=O | 1.02 µM |  | > 50 µM |  | Not Active | inactive | inactive |  |
| CCN(CC)CCCC(C)Nc1ccnc2cc(Cl)ccc12 (stereo not drawn) [CHLOROQUINE] |  |  |  |  |  |  |  | Activity [12]: Non-Toxic |
| CC(C)[C@H]1NC(=O)[C@H](Cc2c[nH]c3ccccc23)n2c1nc1ccccc1c2=O | > 10 µM |  | > 100 µM |  | Not Active | inactive | inactive |  |
| CSCC[C@@H]1NC(=O)[C@@H](Cc2c[nH]c3ccccc23)n2c1nc1ccccc1c2=O | > 10 µM |  |  |  | Not Active |  |  |  |
| O=C1N[C@H](Cc2ccc(O)cc2)c2nc3ccccc3c(=O)n2[C@H]1Cc1c[nH]c2ccccc12 | 4.18 µM |  | > 100 µM |  | Not Active | inactive | inactive |  |
| CC(C)C[C@@H]1NC(=O)[C@@H](Cc2c[nH]c3ccccc23)n2c1nc1cc(I)c(I)cc1c2=O | > 10 µM |  |  |  | Not Active |  |  |  |
| CC(C)C[C@@H]1NC(=O)[C@H](Cc2c[nH]c3ccccc23)n2c1nc1ccccc1c2=O | > 10 µM |  | 50 µM |  | Not Active | inactive | inactive |  |
| CC[C@H](C)[C@@H]1NC(=O)[C@@H](Cc2c[nH]c3ccccc23)n2c1nc1cc(Cl)c(Cl)cc1c2=O | 1.51 µM | 8.6 | 50 µM | 5.8 µM | Not Active |  | inactive |  |
| O=C1N[C@@H](Cc2c[nH]c3ccccc23)c2nc3ccccc3c(=O)n2[C@@H]1Cc1c[nH]c2ccccc12 | > 10 µM |  |  |  | Not Active |  |  |  |
| CC(C)[C@@H]1NC(=O)[C@H](Cc2c[nH]c3ccccc23)n2c1nc1ccccc1c2=O | > 10 µM | > 21.7 | > 100 µM | 4.6 µM | Not Active |  | inactive |  |

| SMILES | IC50 (Plasmodium falciparum [1]) | selectivity ratio [3] | CC50 at 72 h [4] | IC50 (Trypanosoma brucei [5]) | LD50 (V79) | inhibition (Trypanosoma brucei [10]) | inhibition (Leishmania infantum [11]) | other results |
| --- | --- | --- | --- | --- | --- | --- | --- | --- |
| O=C1N[C@@H](Cc2ccc(OCc3ccccc3)cc2)c2nc3cc(Cl)c(Cl)cc3c(=O)n2[C@@H]1Cc1c[nH]c2ccccc12 | 4 µM | > 25.6 | > 100 µM | 3.9 µM | Not Active |  | inactive |  |
| CC(C)[C@@H]1NC(=O)[C@@H](Cc2c[nH]c3ccccc23)n2c1nc1ccccc1c2=O | 0.1 µM |  | > 100 µM |  |  | inactive | inactive | selectivity ratio [7]: 19; inhibition (Hemozoin [8]): inactive; hemolysis at 1 h, up to 10 µM [9]: < 6%; Activity [12]: Non-Toxic; CC50 at 24 h [13]: 1.91 µM |
| CC(C)C[C@@H]1NC(=O)[C@@H](Cc2c[nH]c3ccccc23)n2c1nc1cnccc1c2=O | 4 µM |  | > 100 µM |  | Not Active | inactive | inactive |  |
| CC[C@H](C)[C@@H]1NC(=O)[C@@H](Cc2c[nH]c3ccccc23)n2c1nc1ccc(Cl)cc1c2=O | > 10 µM |  |  |  | Not Active |  |  |  |
| CC[C@H](C)[C@@H]1NC(=O)[C@@H](Cc2c[nH]c3ccccc23)n2c1nc1ccccc1c2=O | > 10 µM |  |  |  | Not Active |  |  |  |
| CC(C)[C@H]1NC(=O)[C@@H](Cc2c[nH]c3ccccc23)n2c1nc1ccccc1c2=O | 0.15 µM | > 14.1 | > 100 µM | 7.1 µM | Not Active |  | inactive |  |
| CC(C)C[C@@H]1NC(=O)[C@@H](Cc2c[nH]c3ccccc23)n2c1nc1ccc(O)cc1c2=O | 0.73 µM | > 11.6 | > 100 µM | 8.6 µM | Not Active |  | inactive |  |
| CC(C)C[C@@H]1NC(=O)[C@@H](Cc2c[nH]c3ccccc23)n2c1nc1ncccc1c2=O | 3.76 µM |  | > 100 µM |  | Not Active | inactive | inactive |  |
| CC(C)C[C@H]1NC(=O)[C@H](Cc2c[nH]c3ccccc23)n2c1nc1ccccc1c2=O | 2 µM |  | > 100 µM |  | Not Active | inactive | inactive |  |
| CCCCCCCCCCCCCCCCOP(=O)([O-])OCC[N+](C)(C)C [MILTEFOSINE] |  |  | 28.8 µM |  |  | inactive |  | selectivity ratio [2]: 28.8; IC50 (Leishmania infantum [6]): 1 µM |
| Cc1ccc2nc3n(c(=O)c2c1)[C@H](Cc1c[nH]c2ccccc12)C(=O)N[C@H]3CC(C)C | > 10 µM |  | > 100 µM |  | Not Active | inactive | inactive |  |
| Clc1ccc2nccc(N3CCC(CN4CCC(c5c[nH]c6ccccc56)CC4)CC3)c2c1 |  |  |  |  |  |  |  | EC50 (HepG2): > 10 µM; EC50 (Plasmodium falciparum [14]): 0.034 µM |
| N=C(N)c1ccc(OCCCCCOc2ccc(C(=N)N)cc2)cc1 [PENTAMIDINE] |  |  | > 10 µM |  |  |  | inactive |  |
| O=C1N[C@H](Cc2ccc(OCc3ccccc3)cc2)c2nc3ccccc3c(=O)n2[C@H]1Cc1c[nH]c2ccccc12 | > 10 µM | > 62.5 | > 100 µM | 1.6 µM | Not Active |  | inactive |  |
| CC(C)C[C@@H]1NC(=O)[C@@H](Cc2c[nH]c3ccccc23)n2c1nc1ccc(Cl)cc1c2=O | > 10 µM |  |  |  | Not Active |  |  |  |
| CC(C)C[C@@H]1NC(=O)[C@@H](Cc2c[nH]c3ccccc23)n2c1nc1cc(Cl)c(Cl)cc1c2=O | 0.2 µM | 4.2 | 25 µM | 5.9 µM |  |  | inactive | selectivity ratio [7]: 70; inhibition (Hemozoin [15]): inactive; hemolysis at 1 h, up to 10 µM [9]: < 6%; Activity [12]: Non-Toxic; CC50 at 24 h [13]: 14 µM |
